Experimental data reported in patent publication US20260041707A1, “GASTROINTESTINAL PROTECTANT COMPOSITION” (BIOIBERICA, S.A.U., priority 2022, published 2026).

Legend:
human patients = settings: humans; cited from earlier work
[1] = test system: indomethacin-induced gastric irritation; experiment: Rat model of indomethacin-induced gastric irritation; format: in vivo, Sprague-Dawley rats
Method: Forty-five Sprague-Dawley rats (8-9 weeks-old, 227.6±6.30 g) were divided in three groups (P1, P2 and P3; n=9 each) to receive orally 0.5 mL/rat of the test treatments. Two control groups were studied as well. […] 15 minutes after the administration of the treatment, all animals were challenged with an oral administration of indomethacin (12.5 mg/kg) and sacrificed 4 hours later. Gastric mucosal injury was examined at a macroscopical and microscopical level. Macroscopic lesions were evaluated with Image J software. Microscopically, submucosal edema and microvascular injury were scored in H&E-stained preparations (Hematoxylin&Eosin-stained preparations). Measurements were blinded and performed by two independent observers and an inter-observer mean was calculated.

Substance: Sucrose octasulfate-aluminum complex [sucralfate]
- other adverse effects (xerostomia, nausea, vomiting, headache, urticaria, rashes), incidence in patients (human patients): 0-5%
- microvascular injury evaluation (score, mean±SEM) ([1]; H&E-stained fundic sections, Placebo 1.53±0.077, significant vs Placebo): 0.94±0.123
- histological sections of the fundic stomach (findings) ([1]; microscopic evaluation, H&E-stained fundic sections): less severe lesions
- percentage of hemorrhagic area related to the total gastric area (mean±SEM) ([1]; oral 0.5 mL/rat 15 min before oral indomethacin 12.5 mg/kg, sacrificed 4 hours later, Placebo 1.37±0.260%, p<0.05 vs Placebo): 0.41±0.154%
- hemorrhagic area (mean±SEM) ([1]; oral 0.5 mL/rat 15 min before oral indomethacin 12.5 mg/kg, sacrificed 4 hours later, Placebo 13.05±2.700, p<0.05 vs Placebo): 4.28±1.495 mm^2
